For the assay, the target named is T1, DLK (Homo sapiens, UniProt Q12852).
T1 sequence (Q12852 1-520): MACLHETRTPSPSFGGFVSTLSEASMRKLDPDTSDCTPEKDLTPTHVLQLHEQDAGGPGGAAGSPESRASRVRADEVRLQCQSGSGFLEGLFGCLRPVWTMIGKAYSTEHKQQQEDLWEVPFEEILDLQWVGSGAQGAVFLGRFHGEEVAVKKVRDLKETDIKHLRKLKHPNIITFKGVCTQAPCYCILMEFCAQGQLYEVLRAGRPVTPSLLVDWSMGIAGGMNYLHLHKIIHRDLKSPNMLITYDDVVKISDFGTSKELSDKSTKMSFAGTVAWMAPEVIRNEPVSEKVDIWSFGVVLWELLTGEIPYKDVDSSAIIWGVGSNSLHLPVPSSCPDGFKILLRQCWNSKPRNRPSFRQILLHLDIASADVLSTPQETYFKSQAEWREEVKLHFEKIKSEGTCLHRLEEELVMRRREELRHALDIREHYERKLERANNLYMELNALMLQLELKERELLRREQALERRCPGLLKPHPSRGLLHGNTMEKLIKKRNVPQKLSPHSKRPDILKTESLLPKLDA
To be noted: read-out: DLK (Ki) μM; TR-FRET; 5 nM GST-tagged DLK (catalytic domain aa 1-520), 40 nM HIS-MKK4 K131M substrate, 30 μM ATP, 60 minutes.

Usually Ki stands for the dissociation constant of the complex between target and ligand, obtained from inhibition or displacement. For the compound `CC(C)n1nc(-c2cnc3[nH]cc(Cl)c3c2)cc1C1CCN(C2COC2)CC1` [Compound 72, 3-chloro-5-(1-isopropyl-5-(1-(oxetan-3-yl)piperidin-4-yl)-1H-pyrazol-3-yl)-1H-pyrrolo[2,3-b]pyridine], the Ki is 0.015 µM.

`Nc1ncc(-c2cc([C@H]3[C@@H]4CN(C5COC5)C[C@@H]43)n(C3CCC3)n2)cc1OC(F)F` [Compound 151, 5-(1-cyclobutyl-5-((1R,5S,6r)-3-(oxe-tan-3-yl)-3-azabicyclo[3.1.0]hexan-6-yl)-1H-pyrazol-3-yl)-3-(difluorometh-oxy)pyridin-2-amine]: the Ki was 0.0055 µM.

As for `Nc1ncc(-c2cc([C@H]3[C@@H]4CN(C5COC5)C[C@@H]43)n(C3CCCC3)n2)cc1C(F)(F)F` [Compound 135, 5-(1-cyclopentyl-5-((1R,5S,6r)-3-(oxetan-3-yl)-3-azabicyclo[3.1.0]hexan-6-yl)-1H-pyrazol-3-yl)-3-(trifluoromethyl)pyridin-2-amine], the Ki worked out at 0.0089 µM.

Take `CC(C)n1nc(-c2cnc(N)c(OC(F)F)c2)cc1C1CCN(C2COC2)CC1` [Compound 99, 3-(difluoromethoxy)-5-(1-isopropyl-5-(1-(oxetan-3-yl)piperidin-4-yl)-1H-pyrazol-3-yl)pyridin-2-amine]: the inhibition constant Ki was found to be 0.069 µM.

For `CC(=O)N1C[C@@H]2[C@H](C1)[C@H]2c1cc(-c2cnc(N)c(C(F)(F)F)c2)nn1C(C)C` [Compound 115, 1-((1R,5S,6r)-6-(3-(6-amino-5-(trifluoro-methyl)pyridin-3-yl)-1-isopropyl-1H-pyrazol-5-yl)-3-azabicyclo[3.1.0]hexan-3-yl)ethanone], the Ki came to 0.0056 µM.

On to `CC(C)n1nc(-c2cnc(N)c(C(F)(F)F)c2)cc1C1CCN(C)CC1` [Compound 41, 5-(1-isopropyl-5-(1-methylpiperidin-4-yl)-1H-pyrazol-3-yl)-3-(trifluoromethyl)pyridin-2-amine], for which the Ki was determined as 0.045 µM.

As for `Nc1ncc(-c2cc([C@H]3[C@@H]4CN(C5COC5)C[C@@H]43)n(C3CCC3)n2)cc1C1CC1` [Compound 153, 5-(1-cyclobutyl-5-((1R,5S,6r)-3-(oxe-tan-3-yl)-3-azabicyclo[3.1.0]hexan-6-yl)-1H-pyrazol-3-yl)-3-cyclopropyl-pyridin-2-amine], the inhibition constant Ki amounted to 0.011 µM.

As for `CC(C)n1nc(-c2cnc(N)c(C(F)(F)F)c2)cc1C1CCN(C2COC2)C1` (stereo not shown) [Compound 67, 5-(1-isopropyl-5-(1-(oxetan-3-yl)pyr-rolidin-3-yl)-1H-pyrazol-3-yl)-3-(tri-fluoromethyl)pyridin-2-amine], the Ki came to 0.03 µM.

For the compound `CC(=O)N1CC(c2cc(-c3cnc4[nH]cc(C(F)(F)F)c4c3)nn2C(C)C)C1` [Compound 10, 1-(3-(1-isopropyl-3-(3-(trifluorometh-yl)-1H-pyrrolo[2,3-b]pyridin-5-yl)-1H-pyrazol-5-yl)azetidin-1-yl)ethan-one], the Ki turned out to be 0.0064 µM.

`CC(C)n1nc(-c2cnc3[nH]cc(C(F)(F)F)c3c2)cc1[C@H]1[C@@H]2CN(C3COC3)C[C@@H]21` [Compound 133, 5-(1-isopropyl-5-((1R,5S,6r)-3-(oxe-tan-3-yl)-3-azabicyclo[3.1.0]hexan-6-yl)-1H-pyrazol-3-yl)-3-(trifluorometh-yl)-1H-pyrrolo[2,3-b]pyridine]: the Ki amounted to 0.0004 µM.

Take `CC(C)n1nc(-c2cnc3[nH]cc(C(F)(F)F)c3c2)cc1C1CCN(CC#N)CC1` [Compound 51, 2-(4-(1-isopropyl-3-(3-(trifluorometh-yl)-1H-pyrrolo[2,3-b]pyridin-5-yl)-1H-pyrazol-5-yl)piperidin-1-yl)aceto-nitrile]: the Ki is 0.00017 µM.

`CC(C)n1nc(-c2cnc(N)c(Cl)c2)cc1[C@H]1[C@@H]2CN(C3COC3)C[C@@H]21` [Compound 140, 3-chloro-5-(1-isopropyl-5-((1R,5S,6r)-3-(oxetan-3-yl)-3-azabicyclo[3.1.0]hexan-6-yl)-1H-pyrazol-3-yl)pyridin-2-amine]: the Ki was 0.04 µM.

In the case of `Cc1c[nH]c2ncc(-c3cc(C4CCN(C5COC5)C4)n(C)n3)cc12` (stereo not shown) [Compound 63, 3-methyl-5-(1-methyl-5-(1-(oxetan-3-yl)pyrrolidin-3-yl)-1H-pyrazol-3-yl)-1H-pyrrolo[2,3-b]pyridine], the Ki stood at 0.034 µM.

On to `Cc1c[nH]c2ncc(-c3cc(C4CCOCC4)n(C4CC(F)(F)C4)n3)cc12` [Compound 35, 5-(1-(3,3-difluorocyclobutyl)-5-(tetra-hydro-2H-pyran-4-yl)-1H-pyrazol-3-yl)-3-methyl-1H-pyrrolo[2,3-b]pyri-dine], for which the Ki was found to be 0.1 µM.

With `CC(=O)N1CC(c2cc(-c3cnc4[nH]cc(C)c4c3)nn2CC2CC2)C1` [Compound 9, 1-(3-(1-(cyclopropylmethyl)-3-(3-meth-yl-1H-pyrrolo[2,3-b]pyridin-5-yl)-1H-pyrazol-5-yl)azetidin-1-yl)ethan-one], the Ki is 0.076 µM.

With `Nc1ncc(-c2cc([C@H]3[C@@H]4CN(C5COC5)C[C@@H]43)n(CC(F)(F)F)n2)cc1C(F)(F)F` [Compound 174, 5-(5-((1R,5S,6r)-3-(oxetan-3-yl)-3-azabicyclo[3.1.0]hexan-6-yl)-1-(2,2,2-trifluoroethyl)-1H-pyrazol-3-yl)-3-(trifluoromethyl)pyridin-2-amine], the Ki was determined as 0.0016 µM.

For the compound `COCCN1C[C@@H]2[C@H](C1)[C@H]2c1cc(-c2cnc(N)c(OC(F)(F)F)c2)nn1C(C)C` [Compound 125, 5-(1-isopropyl-5-((1R,5S,6r)-3-(2-meth-oxyethyl)-3-azabicyclo[3.1.0]hex-an-6-yl)-1H-pyrazol-3-yl)-3-(trifluoro-methoxy)pyridin-2-amine], the inhibitory constant (Ki) was 0.0058 µM.

For `CC(C)n1nc(-c2cnc3[nH]cc(C#N)c3c2)cc1C1CCN(C2COC2)CC1` [Compound 77, 5-(1-isopropyl-5-(1-(oxetan-3-yl)pipe-ridin-4-yl)-1H-pyrazol-3-yl)-1H-pyrro-lo[2,3-b]pyridine-3-carbonitrile], the Ki came to 0.12 µM.

Consider `CC(C)n1nc(-c2cnc(N)c(OC(F)F)c2)cc1[C@H]1[C@@H]2CN(CC(F)(F)F)C[C@@H]21` [Compound 110, 3-(difluoromethoxy)-5-(1-isopropyl-5-((1R,5S,6r)-3-(2,2,2-trifluoroethyl)-3-azabicyclo[3.1.0]hexan-6-yl)-1H-pyrazol-3-yl)pyridin-2-amine], for which the Ki came out at 0.0045 µM.

As to `CC(C)n1nc(-c2cnc3[nH]cc(F)c3c2)cc1C1CN(C2COC2)C1` [Compound 58, 3-fluoro-5-(1-isopropyl-5-(1-(oxetan-3-yl)azetidin-3-yl)-1H-pyrazol-3-yl)-1H-pyrrolo[2,3-b]pyridine], the Ki came out at 0.64 µM.

For `CC(C)n1nc(-c2cnc(N)c(C(F)(F)F)c2)cc1C(C)(C)C#N` [Compound 4, 2-(3-(6-amino-5-(trifluoromethyl)pyridin-3-yl)-1-isopropyl-1H-pyrazol-5-yl)-2-methylpropanenitrile], the Ki was 0.78 µM.

Take `Nc1ncc(-c2cc([C@H]3[C@@H]4CN(C5COC5)C[C@@H]43)n(CC3CC3)n2)cc1Cl` [Compound 154, 3-chloro-5-(1-(cyclopropylmethyl)-5-((1R,5S,6r)-3-(oxetan-3-yl)-3-azabicyclo[3.1.0]hexan-6-yl)-1H-pyrazol-3-yl)pyridin-2-amine]: the Ki came out at 0.025 µM.

Consider `CN1CCC(c2cc(-c3cnc4[nH]cc(C(F)(F)F)c4c3)nn2C2CC(F)(F)C2)CC1=O` (stereo not shown) [Compound 45, 4-(1-(3,3-difluorocyclobutyl)-3-(3-(tri-fluoromethyl)-1H-pyrrolo[2,3-b]pyri-din-5-yl)-1H-pyrazol-5-yl)-1-meth-ylpiperidin-2-one], for which the inhibitory constant (Ki) was 0.14 µM.

As for `Nc1ncc(-c2cc([C@H]3[C@@H]4CN(C5COC5)C[C@@H]43)n(CC3CCC3)n2)cc1C(F)(F)F` [Compound 160, 5-(1-(cyclobutylmethyl)-5-((1R,5S,6r)-3-(oxetan-3-yl)-3-azabicyclo[3.1.0]hexan-6-yl)-1H-pyrazol-3-yl)-3-(tri-fluoromethyl)pyridin-2-amine], the Ki turned out to be 0.0081 µM.

On to `Nc1ncc(-c2cc([C@H]3[C@@H]4CN(C5COC5)C[C@@H]43)n(C3CCC3)n2)cc1Cl` [Compound 147, 3-chloro-5-(1-cyclobutyl-5-((1R,5S,6r)-3-(oxetan-3-yl)-3-azabicyclo[3.1.0]hexan-6-yl)-1H-pyrazol-3-yl)pyri-din-2-amine], for which the Ki worked out at 0.018 µM.

Regarding `CC(C)n1nc(-c2cnc(N)c(C#N)c2)cc1[C@H]1[C@@H]2CN(C3COC3)C[C@@H]21` [Compound 144, 2-amino-5-(1-isopropyl-5-((1R,5 S,6r)-3-(oxetan-3-yl)-3-azabicyclo[3.1.0]hexan-6-yl)-1H-pyrazol-3-yl)nicotinonitrile], the Ki came out at 0.022 µM.

Take `CC(CC#N)N1C[C@@H]2[C@H](C1)[C@H]2c1cc(-c2cnc(N)c(C(F)(F)F)c2)nn1C(C)C` (stereo partly drawn) [Compound 131, 3-((1R,5S,6r)-6-(3-(6-amino-5-(trifluoro-methyl)pyridin-3-yl)-1-isopropyl-1H-pyrazol-5-yl)-3-azabicyclo[3.1.0]hexan-3-yl)butanenitrile]: the Ki was found to be 0.0044 µM.

Consider `CC(C)(C)n1nc(-c2cnc(N)c(C(F)(F)F)c2)cc1[C@H]1[C@@H]2CN(C3COC3)C[C@@H]21` [Compound 167, 5-(1-(tert-butyl)-5-((1R,5S,6r)-3-(oxe-tan-3-yl)-3-azabicyclo[3.1.0]hexan-6-yl)-1H-pyrazol-3-yl)-3-(trifluorometh-yl)pyridin-2-amine], for which the Ki turned out to be 0.027 µM.
